*1 amine or outer side, *2 acyl side, *3 side chain or, on linkers, in order; H or OH if unused. Where a SMILES comes first, the peptide text is derived from it. [ ]: non-standard residue; d: D form. The star is where a group is joined. Pro(3R,4S-CMe2) = CC1(C)[C@@H]2[C@@H](C(=O)O)NC[C@@H]21; X1 = CN(C[C@@H](N*)C(C)(C)C)S(C)(=O)=O; Abu(4,4-F2) = N[C@@H](CC(F)F)C(=O)O; Phe(ol) = N[C@H](CO)Cc1ccccc1; Tle = CC(C)(C)[C@H](N)C(=O)O; CO = O=C([*:1])[*:2]

T1 sequence (P26663 1013-1207, looked up, natural form): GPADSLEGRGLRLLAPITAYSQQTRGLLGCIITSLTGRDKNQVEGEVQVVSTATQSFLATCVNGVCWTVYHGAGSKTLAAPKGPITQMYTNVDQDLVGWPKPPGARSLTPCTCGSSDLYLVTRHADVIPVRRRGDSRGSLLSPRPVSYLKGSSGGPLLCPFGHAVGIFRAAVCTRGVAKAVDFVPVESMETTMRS

The first experiment has as its target T1, HCV NS3/NS4a serine protease (Hepatitis C virus genotype 1b, UniProt P26663).
T1 construct: amino terminus of the NS3 protease domain (amino acids 3-181) with a tetrapeptide linker; made in house; host or cells: E. coli
In words: Spectrophotometric assay for HCV protease inhibitory activity (chromogenic ester substrates). It counts as biochemical, hepatitis C virus (strain 1b). As to conditions: Ki Rating, Table 2; single chain NS4A21-32-GSGS-NS3 3-181 protease, 30° C., pH 6.5. The procedure, abridged: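 Single-chain NS4A(21-32)-GSGS-NS3(3-181) protease (genotype 1b) from E. coli was used at 1.3 nM in 25 mM MOPS pH 6.5 with 300 mM NaCl, 30 °C and 4% DMSO. Chromogenic ester substrate cleavage was followed as PAP release at 370 nm over 60 min. Ki was derived from vo/vi versus [I] plots assuming competitive inhibition.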
Turning to `CC(C)[C@H](NC(=O)N[C@H](C(=O)N1C[C@H]2[C@@H]([C@H]1C(=O)N[C@@H](CC(F)F)C(=O)NCCc1ccc(C(=O)O)cc1)C2(C)C)C(C)(C)C)C(=O)OC(C)(C)C` [Example 125], the Ki is 100 to 500 nM. Turning to `CC(C)(C)[C@H](NC(=O)NC1(CS(C)(=O)=O)CCCCC1)C(=O)N1C[C@H]2[C@@H](C1C(=O)NC(CC(F)F)C(=O)NCCc1ccc(C(N)=O)cc1)C2(C)C` (stereo partly drawn) [Example 135], the Ki was in the range of 100 to 500 nM. In the case of `CC(C)[C@H](NC(=O)N[C@H](C(=O)N1C[C@H]2[C@@H]([C@H]1C(=O)N[C@@H](CC(F)F)C(=O)NCCc1ccc(C(=O)O)cc1)C2(C)C)C(C)(C)C)C(=O)c1ccccc1` [Example 132], the Ki lay within 100 to 500 nM. On to `CC(C)[C@H](NC(=O)N[C@H](C(=O)N1C[C@H]2[C@@H]([C@H]1C(=O)N[C@@H](CC(F)F)C(=O)NCCc1ccc(C(N)=O)cc1)C2(C)C)C(C)(C)C)C(N)=O` [Example 144], for which the Ki was 100 to 500 nM.

As for `CC1(NC(=O)N[C@H](C(=O)N2C[C@H]3[C@@H]([C@H]2C(=O)N[C@@H](CC(F)F)C(=O)NCCC(=O)OC(C)(C)C)C3(C)C)C(C)(C)C)CCCCC1` [Example 155], the Ki was above 500 nM.

For the compound `CC1(C)C[C@H]2[C@H](CN(C(=O)[C@@H](NC(=O)OCc3ccccc3)C3CCCCC3)[C@@H]2C(=O)N[C@@H](CC(F)F)C(=O)O)O1` [Example 161], the Ki is above 500 nM. For `CC(C)[C@H](NC(=O)N[C@H](C(=O)N1C[C@H]2[C@@H]([C@H]1C(=O)NC(CC(F)F)C(=O)NCCc1ccc(C(=O)O)cc1)C2(C)C)C(C)(C)C)C(=O)O` (stereo partly drawn) [Example 146], the Ki is above 500 nM. With `CC(C)(C)OC(=O)N[C@H](C(=O)N1C[C@H]2[C@@H]([C@H]1C(=O)NC(CC(F)F)C(=O)NCCc1ccccc1)C2(C)C)C(C)(C)C` (stereo partly drawn) [Example 151], the Ki is above 500 nM. Take `CC(C)[C@H](NC(=O)N[C@H](C(=O)N1C[C@H]2[C@@H]([C@H]1C(=O)N[C@@H](CC(F)F)C(=O)NCCc1ccc(C(N)=O)cc1)C2(C)C)C(C)(C)C)C(=O)O` [Example 124]: the Ki was 100 to 500 nM. On to `CC(C)[C@H](NC(=O)N[C@H](C(=O)N1C[C@@H]2OC(C)(C)C[C@@H]2[C@H]1C(=O)N[C@@H](CC(F)F)C(=O)NCCc1ccccc1)C1CCCCC1)C(=O)OC(C)(C)C` [Example 152], for which the Ki was above 500 nM.

The experiment is the same for the next values; noted with them: Ki, Table 1; single chain NS4A21-32-GSGS-NS3 3-181 protease, 30° C., pH 6.5.
With `COC(=O)c1ccc(CCNC(=O)[C@H](CC(F)F)NC(=O)[C@@H]2[C@@H]3[C@H](CN2C(=O)[C@@H](NC(=O)N[C@H](CN(C)S(=O)(=O)c2ccccc2)C(C)C)C(C)(C)C)C3(C)C)cc1` [Example 116], the Ki came out at 100 nM. Regarding `CC(C)(C)[C@H](NC(=O)N[C@H](CN1CCCS1(=O)=O)C(C)(C)C)C(=O)N1C[C@H]2[C@@H](C1C(=O)NC(CC(F)F)C(=O)NCCc1ccc(C(=O)O)cc1Cl)C2(C)C` (stereo partly drawn) [Example 102], the Ki was 21 nM. As to `COC(=O)c1ccc(CCNC(=O)[C@H](CC(F)F)NC(=O)[C@@H]2C3C(CN2C(=O)[C@@H](NC(=O)N[C@H](CN(C)S(C)(=O)=O)C(C)(C)C)C2CCCCC2)C3(C)C)cc1` (stereo partly drawn) [Example 101], the Ki was 11 nM.

On to `CC(C)(C)[C@H](NC(=O)NC1(CS(C)(=O)=O)CCCCC1)C(=O)N1C[C@H]2[C@@H](C1C(=O)NC(CC(F)F)C(=O)NCCc1ccc(C(N)=O)cc1)C2(C)C` (stereo partly drawn) [Example 109], for which the inhibition constant (Ki) is 38 nM.

The experiment is the same for the next values; noted with them: Ki, Table 3; rating; single chain NS4A21-32-GSGS-NS3 3-181 protease, 30° C., pH 6.5.
Consider `CN(C[C@@H](NC(=O)N[C@H](C(=O)N1C[C@H]2[C@@H]([C@H]1C(=O)N[C@@H](CC(F)F)C(=O)N[C@@H]1CCC[C@H]1OCc1ccccc1)C2(C)C)C(C)(C)C)C(C)(C)C)S(C)(=O)=O` [Example 254], for which the Ki was above 500 nM. In the case of `CC1(C)CC(=O)N(C[C@@H](NC(=O)N[C@H](C(=O)N2C[C@H]3[C@@H]([C@H]2C(=O)N[C@@H](CC(F)F)C(=O)NCCc2c(F)cccc2F)C3(C)C)C(C)(C)C)C(C)(C)C)C(=O)C1` [Example 309], the Ki was below 100 nM. For the compound `COc1ccc(OC)c(CCNC(=O)[C@H](CC(F)F)NC(=O)[C@@H]2[C@@H]3[C@H](CN2C(=O)[C@@H](NC(=O)N[C@H](CN(C)S(C)(=O)=O)C(C)(C)C)C(C)(C)C)C3(C)C)c1` [Example 279], the Ki lay in the range of 100 to 500 nM. For the compound `CN(C[C@@H](NC(=O)N[C@H](C(=O)N1C[C@H]2[C@@H]([C@H]1C(=O)N[C@@H](CC(F)F)C(=O)NCCc1ccc(S(N)(=O)=O)cc1)C2(C)C)C(C)(C)C)C(C)(C)C)S(C)(=O)=O` [Example 201], the Ki is below 100 nM. Still for that read-out and setting: the value for `CC(CNC(=O)[C@H](CC(F)F)NC(=O)[C@@H]1[C@@H]2[C@H](CN1C(=O)[C@@H](NC(=O)N[C@H](CN(C)S(C)(=O)=O)C(C)(C)C)C(C)(C)C)C2(C)C)c1ccccc1` (stereo partly drawn) [Example 219] was below 100 nM; that for `CN(C[C@@H](NC(=O)N[C@H](C(=O)N1C[C@H]2[C@@H]([C@H]1C(=O)N[C@@H](CC(F)F)C(=O)NCCc1cccc(F)c1)C2(C)C)C(C)(C)C)C(C)(C)C)S(C)(=O)=O` [Example 264] was below 100 nM; that for `CN(C[C@@H](NC(=O)N[C@H](C(=O)N1C[C@H]2[C@@H]([C@H]1C(=O)N[C@@H](CC(F)F)C(=O)N1Cc3ccccc3C1)C2(C)C)C(C)(C)C)C(C)(C)C)S(C)(=O)=O` [Example 301] was above 500 nM. As for `CCOc1ccc(CCNC(=O)[C@H](CC(F)F)NC(=O)[C@@H]2[C@@H]3[C@H](CN2C(=O)[C@@H](NC(=O)N[C@H](CN(C)S(C)(=O)=O)C(C)(C)C)C(C)(C)C)C3(C)C)cc1` [Example 274], the Ki is below 100 nM. Regarding `COc1ccc(CCNC(=O)[C@H](CC(F)F)NC(=O)[C@@H]2[C@@H]3[C@H](CN2C(=O)[C@@H](NC(=O)N[C@H](CN(C)S(C)(=O)=O)C(C)(C)C)C(C)(C)C)C3(C)C)cc1Cl` [Example 281], the Ki was below 100 nM. For the compound `CC(CO)NC(=O)[C@H](CC(F)F)NC(=O)[C@@H]1[C@@H]2[C@H](CN1C(=O)[C@@H](NC(=O)N[C@H](CN(C)S(C)(=O)=O)C(C)(C)C)C(C)(C)C)C2(C)C` (stereo partly drawn) [Example 230], the inhibitory constant (Ki) was above 500 nM. Turning to `COc1ccccc1CCNC(=O)[C@H](CC(F)F)NC(=O)[C@@H]1[C@@H]2[C@H](CN1C(=O)[C@@H](NC(=O)N[C@H](CN(C)S(C)(=O)=O)C(C)(C)C)C(C)(C)C)C2(C)C` [Example 269], the Ki is below 100 nM. In the case of `CCN(CC)CCNC(=O)[C@H](CC(F)F)NC(=O)[C@@H]1[C@@H]2[C@H](CN1C(=O)[C@@H](NC(=O)N[C@H](CN(C)S(C)(=O)=O)C(C)(C)C)C(C)(C)C)C2(C)C` [Example 234], the Ki was above 500 nM. On to `CN(C[C@@H](NC(=O)N[C@H](C(=O)N1C[C@H]2[C@@H]([C@H]1C(=O)N[C@@H](CC(F)F)C(=O)NCCc1ccc(Cl)cc1)C2(C)C)C(C)(C)C)C(C)(C)C)S(C)(=O)=O` [Example 250], for which the Ki was below 100 nM. Consider `CN(C[C@@H](NC(=O)N[C@H](C(=O)N1C[C@H]2[C@@H]([C@H]1C(=O)N[C@@H](CC(F)F)C(=O)NCC(c1ccccc1)c1ccccc1)C2(C)C)C(C)(C)C)C(C)(C)C)S(C)(=O)=O` [Example 228], for which the Ki is above 500 nM. Consider `COc1cc(CCNC(=O)[C@H](CC(F)F)NC(=O)[C@@H]2[C@@H]3[C@H](CN2C(=O)[C@@H](NC(=O)N[C@H](CN(C)S(C)(=O)=O)C(C)(C)C)C(C)(C)C)C3(C)C)cc(OC)c1O` [Example 297], for which the Ki lay within 100 to 500 nM. `CN(CCc1ccccc1)C(=O)[C@H](CC(F)F)NC(=O)[C@@H]1[C@@H]2[C@H](CN1C(=O)[C@@H](NC(=O)N[C@H](CN(C)S(C)(=O)=O)C(C)(C)C)C(C)(C)C)C2(C)C` [Example 303]: the Ki was above 500 nM. As to `Cc1ccc(CCNC(=O)[C@H](CC(F)F)NC(=O)[C@@H]2[C@@H]3[C@H](CN2C(=O)[C@@H](NC(=O)N[C@H](CN(C)S(C)(=O)=O)C(C)(C)C)C(C)(C)C)C3(C)C)cc1C` [Example 267], the Ki was below 100 nM.

Consider `CC(NC(=O)[C@H](CC(F)F)NC(=O)[C@@H]1[C@@H]2[C@H](CN1C(=O)[C@@H](NC(=O)N[C@H](CN(C)S(C)(=O)=O)C(C)(C)C)C(C)(C)C)C2(C)C)c1ccccc1` (stereo partly drawn) [Example 215], for which the Ki is above 500 nM. Turning to `CN(C[C@@H](NC(=O)N[C@H](C(=O)N1C[C@H]2[C@@H]([C@H]1C(=O)N[C@@H](CC(F)F)C(=O)NCCc1c(F)cccc1Cl)C2(C)C)C(C)(C)C)C(C)(C)C)S(C)(=O)=O` [Example 275], the inhibitory constant (Ki) is below 100 nM. Turning to `CN(C[C@@H](NC(=O)N[C@H](C(=O)N1C[C@H]2[C@@H]([C@H]1C(=O)N[C@@H](CC(F)F)C(=O)NCCc1ccc(N)cc1)C2(C)C)C(C)(C)C)C(C)(C)C)S(C)(=O)=O` [Example 262], the Ki is below 100 nM. `CN(C[C@@H](NC(=O)N[C@H](C(=O)N1C[C@H]2[C@@H]([C@H]1C(=O)N[C@@H](CC(F)F)C(=O)NCCc1ccc(O)c(O)c1)C2(C)C)C(C)(C)C)C(C)(C)C)S(C)(=O)=O` [Example 298]: the Ki is below 100 nM. The same measure, in the same setting: the same measure for `CCCOc1ccc(CCNC(=O)[C@H](CC(F)F)NC(=O)[C@@H]2[C@@H]3[C@H](CN2C(=O)[C@@H](NC(=O)N[C@H](CN(C)S(C)(=O)=O)C(C)(C)C)C(C)(C)C)C3(C)C)cc1Cl` [Example 299]: below 100 nM; for `CN(C[C@@H](NC(=O)N[C@H](C(=O)N1C[C@H]2[C@@H]([C@H]1C(=O)N[C@@H](CC(F)F)C(=O)N[C@H]1C[C@@H]1c1ccccc1)C2(C)C)C(C)(C)C)C(C)(C)C)S(C)(=O)=O` [Example 293]: above 500 nM.

`CN(C[C@@H](NC(=O)N[C@H](C(=O)N1C[C@H]2[C@@H]([C@H]1C(=O)N[C@@H](CC(F)F)C(=O)NCCc1cccnc1)C2(C)C)C(C)(C)C)C(C)(C)C)S(C)(=O)=O` [Example 236]: the Ki was below 100 nM.

For the compound `CN(C[C@@H](NC(=O)N[C@H](C(=O)N1C[C@H]2[C@@H]([C@H]1C(=O)N[C@@H](CC(F)F)C(=O)N[C@H](CO)Cc1ccccc1)C2(C)C)C(C)(C)C)C(C)(C)C)S(C)(=O)=O` [Example 249] ({X1-CO}-[Tle][Pro(3R,4S-CMe2)][Abu(4,4-F2)][Phe(ol)]), the Ki was above 500 nM.

The term Ki denotes a dissociation constant, usually derived from enzyme kinetics or from competition with a known ligand.

Values taken from US7449447B2, “Peptidomimetic NS3-serine protease inhibitors of hepatitis C virus” (priority 2003, dated 2008).
